In US20050059634A1, “Per-6-substituted-per-6-deoxy-cyclodextrins, and use of the same to inhibit soluble beta-amyloid-peptide derived oligomers and to treat alzheimer's and related diseases” (priority 2003, published 2005):

Legend:
[1] = target: T1, Aβ1-42 (Homo sapiens, UniProt P05067); experiment: ADDLs formation dot-blot assay (Aβ oligomerization); assay type: biochemical; conditions: for IC50: purified derivatives, Aβ1-42 10 nM, dot-blot densitometry at 4 hours, read-out: IC50, inhibition of ADDLs formation
T1 construct: an aliquot of Aβ1-42 was dissolved in anhydrous DMSO
Procedure: Using a high throughput dot blot assay recently developed for measuring Aβ oligomerization (L. Chang et al., J. Neuromol. Chem., 20, 305-313 (2003)), various beta-CD derivatives were evaluated for an ability to inhibit oligomerization of Aβ1-42. beta-CD (1) is a cyclic glucopyranose oligomer (FIG. 1), whose shape is reminiscent of a lamp-shade, frequently depicted schematically as compound 2 in FIG. 1. Actually three different hydroxyls are present in each sugar in the beta-CD molecule, which can be readily differentiated chemically. Additionally, no plane of symmetry exists in the molecule because the cyclic α-1,4-linkage forms a torus. Consequently, the primary hydroxyl groups are not equivalent when substituted. The end result of these structural features is that symmetry operations are not possible with different substitution patterns and each pattern represents a different compound. […]
ADDLs assay The assays were performed as set forth in Wang et al., J. Med. Chem., 47(13), pages 3329-3333 (2003). […] Time-dependent ADDLs formation was monitored by diluting 4 μl of […] Aβ/DMSO solutions with 196 μl of ice-cold F12 medium to 100 nM and 10 nM Aβ, respectively. […] These F12/CD solutions then were used in ADDLs assays, and the oligomer formation monitored as described. […]
ADDLs Western blot/dot blot assays For Western blots, samples were subjected to SDS-PAGE on 16.5% Tris-tricine gels at 100V […] for 1.5 to 2 hours. […] Visualization of proteins with chemiluminescent reagents was recorded by exposure to ECL film (Amersham-Pharmacia).
Dose response curves Dose response curves were prepared by performing the aforementioned dot-blot assays with Aβ1-42 (10 nM) in the presence of purified per-6-substituted-beta-CDs at the indicated concentrations. The response was determined for the dots at 4 hours using Kodak 1D imaging software and reported as log dose response of the ratio of beta-CD to Aβ1-42 as shown in FIG. 5.

[2] = test system: PC12 cells; conditions: Camilleri et al. 1994; cited from earlier work

T1 sequence (P05067 672-713 limits assumed): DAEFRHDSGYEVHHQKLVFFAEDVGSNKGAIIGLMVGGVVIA

Row | IC50 [1] | Compound | inhibitory activity in ADDLs formation assay (qualitative) ([1]; corresponding concentrations, same conditions as the purified derivatives) | effect on neurotoxic effects of Aβ1-40 [2]
1 | 540 nM | OC1C2OC(CNCc3ccco3)C(OC3OC(CNCc4ccco4)C(OC4OC(CNCc5ccco5)C(OC5OC(CNCc6ccco6)C(OC6OC(CNCc7ccco7)C(OC7OC(CNCc8ccco8)C(OC8OC(CNCc9ccco9)C(O2)C(O)C8O)C(O)C7O)C(O)C6O)C(O)C5O)C(O)C4O)C(O)C3O)C1O (stereo not drawn) [4a, per-furfurylamino-6-deoxy-beta-CD] | – | –
2 | 460 nM | OC1C2OC(CNCc3ccccc3)C(OC3OC(CNCc4ccccc4)C(OC4OC(CNCc5ccccc5)C(OC5OC(CNCc6ccccc6)C(OC6OC(CNCc7ccccc7)C(OC7OC(CNCc8ccccc8)C(OC8OC(CNCc9ccccc9)C(O2)C(O)C8O)C(O)C7O)C(O)C6O)C(O)C5O)C(O)C4O)C(O)C3O)C1O (stereo not drawn) [5a, per-benzylamino-6-deoxy-beta-CD] | – | –
3 | – | OC[C@H]1O[C@@H]2O[C@H]3[C@H](O)[C@@H](O)[C@@H](O[C@H]4[C@H](O)[C@@H](O)[C@@H](O[C@H]5[C@H](O)[C@@H](O)[C@@H](O[C@H]6[C@H](O)[C@@H](O)[C@@H](O[C@H]7[C@H](O)[C@@H](O)[C@@H](O[C@H]8[C@H](O)[C@@H](O)[C@@H](O[C@H]1[C@H](O)[C@H]2O)O[C@@H]8CO)O[C@@H]7CO)O[C@@H]6CO)O[C@@H]5CO)O[C@@H]4CO)O[C@@H]3CO [beta-CD, beta-cyclodextrin] | did not show any detectable inhibitory activity | substantially diminishes the neurotoxic effects
